Columns and labels:
[1] = Fluorescence of purified CaMPARI green and red forms +/- calcium; details: purified protein
Protocol: (§1) This Example describes procedures performed to characterize the in vitro properties of the fluorescent proteins. First, CaMPARI protein was expressed from the pRSET plasmid (Life Technologies, Carlsbad, Calif.) in T7 Express E. coli cells cultured for 36 h in 100 mL of autoinduction medium supplemented with 100 mg/L ampicillin. Cell pellets were lysed using B-PER (Pierce, Rockford, Ill.) supplemented with 1 mg/mL lysozyme and 1 min. of sonication. After removing insoluble material by centrifugation, CaMPARI protein was purified by immobilized metal affinity chromatograpy on nickel-charged Profinity resin (Bio-Rad, Hercules, Calif.), washing with 10 mM imidazole and eluting with 100 mM imidazole.
(§2) Using these samples, calcium titrations were used to calculate an apparent affinity of the protein for calcium ions. Aliquots of purified CaMPARI protein were mixed with Ca-EGTA solutions calculated to contain a range of free Ca^2+ ions (Life Technologies) and fluorescence was measured in a plate reader. Furthermore, to observe the photoconversion rate difference+/−calcium, purified CaMPARI in 5 mM CaCl2 or 5 mM EGTA were photoconverted using a 400 nm LED array and green and red fluorescence was measured at various time points to fit an exponential rate to the appearance of red fluorescence or the disappearance of green fluorescence.

[2] = Calcium titration of purified CaMPARI protein, fluorescence in plate reader; type: binding
Protocol: as §1, §2

[3] = Photoconversion rate difference +/- calcium of purified CaMPARI (400 nm LED array); details: purified protein, 5 mM CaCl2 vs 5 mM EGTA
Protocol: as §1, §2

[4] = tested on: cultured rat hippocampal neurons; experiment: Photoconversion with field electrode stimulation in neurons expressing CaMPARI; type: cell-based; details: 83 Hz action potentials at the beginning of a 2 s photoconversion pulse
Protocol: First, cultured rat hippocampal neurons were prepared and infected with lentivirus expressing CaMPARI from the human synapsin promoter. The neurons were imaged ten days after infection with a 10× objective before and after various combinations of photoconversion and field electrode-induced action potential firing. Prior to imaging, the neuron cultures were washed with imaging buffer and spontaneous activity was blocked with a drug mix.
Following a 2 s pulse of photoconversion light (1.5 W/cm^2) to CaMPARI-expressing neurons, there was no significant decrease in green fluorescence and a small amount of red fluorescence was visible (FIG. 13A). […] Repeated exposures of CaMPARI-expressing neurons to shorter photoconversion light pulses (0.5 s) led to increasing amounts of red fluorescence signal (FIG. 16A) and red/green ratio (two left bars in FIG. 16B), but the ratio of red-to-green photoconversion between 80 Hz field stimulated and unstimulated neurons remained approximately constant (right-most bars in FIG. 16B). Field electrode stimulation of CaMPARI-expressing neurons (without application of photoconversion light) led to transient decreases in the green fluorescence signal, proportional to the number of induced action potentials (FIG. 17).

[5] = Kinetics of fluorescence decay upon calcium release, rapid mixing with EGTA in stopped-flow device; type: binding
Protocol: (§3) Other CaMPARI variants were constructed and there include V398L, W391F+V398L, W391F, W391L, V398T, G395D, W391Y, W391Y+V398T, V398D, W391F+G395D, W391F+V398H. The variants were made based on substitutions within the M13 domain of CaMPARI that alter the affinity, cooperativity and kinetics and calcium binding. The magnitude of fluorescence change was similar for all variants. Dissociation constants for calcium (Kd) and Hill coefficients were determined from a sigmoidal fit to calcium titration data. Kinetics of fluorescence decay upon calcium release were determined by rapid mixing with EGTA in a stopped-flow device.

[6] = Calcium titration of CaMPARI M13-domain variants, sigmoidal fit; type: binding; details: dissociation constant for calcium, sigmoidal fit to calcium titration data
Protocol: as §3

In the case of “CaMPARI v1: isolated polypeptide comprising CaM, EosFP, and M13, SEQ ID NO: 1; Calcium-Modulated Photoactivatable Ratiometric Integrator”, the “green form less fluorescent in the presence of calcium” value ([1]; green form) is reported as 8 fold, the “red form less fluorescent in the presence of calcium” value ([1]; red form) is reported as 34 fold and the Kd ([2]; purified protein, without N-terminal NES, estimated from fluorescence change with increasing calcium, read-out: dissociation constant (Kd)) is reported as 130 nM. The Kd ([2]; with nuclear export signal (NES) added to the N-terminus, read-out: Kd) was 106 nM, the “faster green-to-red photoconversion rate in the presence of calcium” value [3] was 29 fold and the “more green-to-red photoconversion for 160 action potentials relative to 0” value [4] was “up to 12 fold”. It also gave a koff [5] of 0.25 s⁻¹ and a Kd [6] of 111 nM.
